In data set [1] the test system is Akt. In words: Akt phosphorylation immunoblot in microglia. In kind it is cell-based, mouse. As to conditions: for effect on fibrin-mediated phosphorylation of Akt: microglia on fibrinogen plus peptide; for effect on LPS-mediated phosphorylation of Akt: microglia with LPS plus peptide. The procedure: Immunoblots. Western blots were performed using standard protocols (55). Microglia were serum-starved overnight and plated on fibrinogen or with LPS for 6 hours. Lysates were electrophoresed on 4-12% gradient SDS-PAGE gels and probed with phospho and total Akt antibodies (1:1000, Cell Signaling, Beverly, Mass.). RhoA activation was performed as described (60). Briefly, 2×107 microglia were plated on fibrinogen for 6 hours or with LPS for 10 minutes. Cell lysates were incubated with GST-Rhotekin agarose beads (kindly provided by Dr. Joan Heller Brown, UCSD) for 45 minutes at 4° C. The beads were washed, resuspended in Laemmli sample buffer, and electophoresed on a 15% SDS-PAGE gel. Activated and total Rho were detected with mouse anti-RhoA (1:500, Santa Cruz Biotechnology, Santa Cruz, Calif.). Densitometry was performed using the NIH Scion Image software using three blots from three separate experiments.
In general terms: In western blotting, separated proteins are transferred to a membrane and probed.

The test system of data set [2] is blood coagulation. The data set is described as follows: Hematological analyses: plasma clotting time and prothrombin time after intranasal peptide. In kind it is in vivo, mouse. As to conditions: 30 μg and 90 μg intranasally daily for seven days. The procedure: Hematological Analyses. Citrated plasma was prepared from mice administered intranasally 30 μg or 90 μg of γ^377-395 peptide or saline control daily for seven days. Plasma clotting times were measured by combining 10 μl of citrated plasma with 10 μl of 2 U/ml bovine thrombin (Enzyme Research Laboratories, South Bend, Ind., USA) and 40 mM. CaCl2 in a weigh boatfloating in a 37° C. water bath. Time to clot was determined by mixing with a toothpick. Plasma thrombin times were established as described previously (15). Fibrin polymerization was evaluated by standard turbidity assays using plasma. Briefly, citrate plasma (diluted tenfold in 20 mM HEPES, pH 7.4, containing 0.15 M NaCl and 5 mM-amino caproic acid) was combined with bovine thrombin (final concentration 0.2 U/ml; Enzyme Research Laboratories, South Bend, Ind., USA), and Ca^2+ (10 mM), and OD350 measurements were taken every 30 seconds.

Data set [3] deals with splenocytes. The data set is described as follows: FACS analysis of splenocytes for peripheral immune cell markers. The data set is classed as in vivo, mouse. As to conditions: peptide-treated vs untreated PLP139-151 immunized mice, day 29. From the text: FACS Analysis. Primary mouse splenocytes were isolated from control and γ^377-395 peptide-treated mice, immunized with PLP139-151, on day 29 after immunization. Cells were immunostained with antibodies to CD4, CD8, CD11b, CD11c, CD19, B220 (1:100, Biolegend, San Diego, Calif.) and analyzed on a Becton Dickinson FACSCalibur flow cytometer.

The subject of data set [4] is PLP139-151 EAE in SJL/J mice. The data set is described as follows: PLP139-151 EAE after vaccination with γ^377-395 peptide. In kind it is in vivo, mouse. As for the experimental part: Induction of EAE. EAE was induced in 6 week old female SJL/J or C57BL/6 mice by subcutaneous immunization with 150 μg PLP139-151 (HSLGKWLGHPDKF) (SEQ ID NO: 5). American Peptide Company and Azco Pharmchem, San Jose, Calif.) or 50 μg MOG35-55 ([…]) (SEQ ID NO: 6), Sigma-Aldrich, St. Louis, Mo.) in complete Freund's adjuvant (Sigma-Aldrich, St. Louis, Mo.) supplemented with […] heat inactivated mycobacterium tuberculosis H37Ra (Difco Laboratories, Detroit, Mich.). Mice were injected intravenously with 200 ng pertussis toxin (Sigma-Aldrich, St. Louis, Mo.) on days 0 and 2 of the immunization. Mice were scored daily. 0: no symptoms, 1: loss of tail tone, 2: ataxia, 3: hindlimb paralysis, 4: hindlimb and forelimb paralysis, 5: moribund Data are represented as the mean clinical score and are mean±SEM. Statistical calculations were made by using Student's t test.
Fibrinogen γ^377-395 peptide vaccination. Vaccination was performed as described (56) with the following modifications. Five week old female SJL/J mice were immunized with 200 μg fibrinogen γ^377-395 peptide (YSMKETTMKIIPFNRLSIG) (SEQ ID NO: 2), Azco Pharmchem, San Jose, Calif.) emulsified with an equal volume of incomplete freund's adjuvant (Sigma-Aldrich, St. Louis, Mo.). Mice were immunized four times in alternating rear flanks over the course of two weeks. Control animals were immunized with incomplete Freund's adjuvant.
Histopathology. Histopathologic analysis and quantification of inflammation and demyelination in mouse tissue was performed on cryostat or paraffin sections as described (57). Sections were stained with luxol fast blue and nuclear red. Spinal cord sections were fixed with 2% PFA for 10 minutes at 4° C. and immunostained with a sheep anti-fibrinogen antibody (1:200, US Biological, Swampscott, Mass.), rat anti-CD11b (1:5, Chemicon), von Willebrand Factor (1:1000, Dakocytomation, Glostrup, Denmark), iNOS (polyclonal Chemicon, Temecula, Calif., 1:750), Mac-3 (rat-anti-mouse, Pharmingen, San Diego, Calif., 1:200), CNPase (monoclonal, Sternberger monoclonals, Lutherville, Md., 1:2000). For human MS, paraffin embedded material was obtained from the Archives of the Center for Brain Research, Medical University of Vienna. Double immunofluorescence was performed with antibodies against CD68 and fibrin. Images were collected using an Axioplan 2 Zeiss microscope with an Axiocam HRc camera or were processed for confocal microscopy using Olympus and Zeiss confocal microscopes.
Rotarod behavior test. The rotarod assay was performed on a TSE accelerating Rotarod apparatus (TSE Technical and Scientific Equipment GmbH) as described (58). Rotarod assays were conducted with a 300 second maximum time limit and means were collected for at least three trials. Statistical calculations were made by using Students t test.

Entries after “also recorded” stand apart in the source; their conditions may differ.

In the case of “tyr-ser-met-lys-lys-thr-thr-met-lys-ile-ile-pro-phe-asn-arg-leu-thr-ile-gly (YSMKKTTMKIIPFNRLTIG) (listed as Homo sapiens) [γ^377-395 peptide]”, in data set [1], the “effect on fibrin-mediated phosphorylation of Akt” value is recorded as “specifically inhibit” and the “effect on LPS-mediated phosphorylation of Akt” value is “not LPS-mediated”. Moreover, in data set [1] (listed as γ^377-395), the “effect on fibrin-mediated phosphorylation of Akt” value was “blocks” and the “effect on LPS-mediated phosphorylation of Akt” value was “unaffected”. For the same substance, in data set [2], the “in vivo blood clotting time” value was “does not affect; also recorded: Neither dose affected” and the prothrombin time result is “does not affect; also recorded: Neither dose affected”. Further, the “peripheral immune cells (CD4, CD8, CD11b, CD11c, CD19, B220) in splenocytes” value in data set [3] is recorded as “did not reveal any differences; also recorded: no significant effect”. Further, in data set [4] (8/15, all control mice 15/15, 200 μg peptide in IFA four times before EAE induction), the “vaccinated mice that developed EAE” value was 53%. For the same substance, the “rotarod: increase in motor strength and coordination vs control mice” value in data set [4] (vaccinated mice) is 76%. For the same substance, in data set [4] (vaccinated mice, control 2.3±1), the “histopathology index, brain” value is given as 1.5±2. Besides, the “histopathology index, spinal cord” value in data set [4] (vaccinated mice, control 12±5.2) was determined as 6.5±5.9. In data set [4] (vaccinated mice, control group 2.5, scale 0-5), this substance yielded an average clinical score of 1.1.

These data come from patent publication US8569242B2, “Method of treating degenerative disorders of the nervous system” (The Regents of the University of California, priority 2005, dated 2013).
